Assay: In vitro release of TC or Rh in simulated body fluid (SBF) from alkylsilane-coated Mg discs
Assay type: physicochemical
Settings: alkylsilane coated Mg disks incubated in SBF, room temperature, 21 day period, sampled every two days; FIG. 1; one way ANOVA highly significant
Protocol: Self-assembled hybrid […] (AS) films on Mg were prepared using a dip-coating technique. The precursor solution was prepared by mixing 0.25 ml (0.73 mM) of […]) (Alfa Aesar, Ward Hill, MA, USA), 0.43 ml (2.92 mM) of […]) (Alfa Aesar, Ward Hill, MA, USA), 2 ml (0.032 mM) of ethanol and 0.25 ml of 0.010 mM HCl (aq.). […] Both the solutions were kept in the dark to avoid contact with light The Mg discs passivated with NaOH were dip coated in the TC- or Rh-containing solution for 1 minute, and dried in air for 10 minutes at room temperature in the dark. The discs were subsequently dried in an incubator at 37° C. for 24 hours to remove any trace amounts of organic solvents. […] Every two days, 150 μl of SBF was taken from each tube and concentrations of Tc and Rh were determined spectroscopically. The concentrations of TC or Rh were determined by measuring absorbance at 280 nm for TC, and fluorescence at excitation/emission wavelengths of 525/555 nm for Rh using a Synergy H1 microplate reader (BioTek instruments, Winooski, VT, USA). Standard curves were created by measuring absorbance and fluorescence intensities of the series of TC and Rh samples of known concentrations. Absorbance and Fluorescence intensity of each sample was calculated as an average of three separate readings. […] Cumulative release of TC or Rh over 21 day period was determined.

- concentration in SBF media (cumulative release): incremental increase
Substance: rhodamine

From US12303621B2, “Use of self-assembled alkylsilane coatings for drug delivery applications” (priority 2017, dated 2025)
